According to patent US20240398701A1, “MANUFACTURING METHODS FOR GASTRIC RESIDENCE SYSTEMS” (Lyndra Therapeutics, Inc., priority 2023, published 2024):

Experiment: Time-dependent behaviour in simulated gastric fluid over seven days
Type: physicochemical
Source text: In some embodiments, a gastric residence system may include one or more time-dependent disintegrating matrices instead of or in addition to one or more enteric disintegrating matrices. A time-dependent disintegrating matrix may include one or more time-dependent polymers or linkers, that is, polymers that degrade in a time-dependent manner in the gastric environment. […] Thus, a polymer that degrades in a time-dependent manner can be readily prepared by mixing Plastoid B and triacetin; the degradation time of the Plastoid B-triacetin mixture can be extended by increasing the amount of Plastoid B used in the mixture (that is, using less triacetin in the mixture), while the degradation time can be decreased by decreasing the amount of Plastoid B used in the mixture (that is, using more triacetin in the mixture).

CC(=O)OCC(COC(C)=O)OC(C)=O [triacetin]
release from a polymer formulation: releases from a polymer formulation in a time-dependent manner
